# Assay results reported in PMC11291853, “Haemodynamic, hormonal and renal actions of osteocrin in normal sheep” (Experimental Physiology, 2024).
# Where no end group is shown, it is not given here.
# Experiments:
# Format in all cases: in vivo
# [1] = test system: normal conscious sheep; test: Haemodynamic and haematocrit responses to stepped OSTN infusion; conditions: for Fall in mean arterial pressure (MAP) compared with time-matched vehicle control: sheep n = 8
# Description: (§1) Eight Coopworth ewes (4–6 years; 42–60 kg; Lincoln University Farm, New Zealand) were instrumented under general anaesthesia (induced by 0.5 mg/kg diazepam I.V. and 4 mg/kg ketamine I.V. and maintained with a mixture of isoflurane and oxygen) and using approved peri‐ and postoperative antibiotics (20 mg/kg cephazolin I.V.; 6.6–20 mg/kg oxytetracycline I.V.) and analgesia (4 mg/kg carprofen I.V.). Sheep were instrumented via a 50‐mm‐long neck incision, allowing cannulation of the left carotid artery (16 gauge Angiocath; Becton Dickinson, Sandy, UT, USA) for direct measurement of mean arterial pressure (MAP) and heart rate (HR). A polyethylene catheter was placed in the left jugular vein for blood sampling and recording of central venous pressure (CVP). A Swan–Ganz thermodilution catheter (Edwards Life Sciences, Irvine, CA, USA) was placed in the pulmonary artery via the jugular vein for the measurement of cardiac output (CO). The urinary bladder was catheterized per urethra for timed urine collections (Charles, Espiner, Nicholls et al., [1996]). Animals recovered for ≥5 days before commencing the study protocol.
# (§2) Sheep received I.V. infusions of increasing doses of ovine proOSTN (83–133), the putative 51 aa circulating peptide (at 2.5, 25 and 250 pmol/kg/min for 1 h each; Mimotopes, Melbourne, Victoria, Australia) and a vehicle control (0.9% saline) administered on separate days, ≥1 day apart, in a balanced random order.
# Haemodynamic measurements [HR, MAP, CVP and CO, and calculated total peripheral resistance (CTPR = MAP/CO)] were recorded at 30 min intervals in the hour preceding the first dose (baseline) and at 15, 30, 45 and 60 min during each infusion. […] Measurements were determined by online computer‐assisted analysis (PowerLab Systems; ADInstruments, Dunedin, New Zealand) and made with the animals standing quietly in their metabolic crates (Charles, Espiner, Nicholls et al., [1996]).
# (§3) Venous blood samples were obtained at 30 min and immediately preceding commencement of the first infusion (baseline) and at 30 min intervals for the duration of the study day. Samples were taken into tubes on ice, centrifuged at 4°C and stored at −20°C before assaying. Following extraction over C18 SepPac cartridges (Waters Corp., Milford, MA, USA), plasma concentrations of cGMP (Charles et al., [1990]), ANP (Charles et al., [1990]), BNP (Pemberton et al., [1997]), CNP (Charles et al., [1995]) and N‐terminal proCNP (NTproCNP) (Wilson et al., [2015]), were measured by radioimmunoassay (RIA) as previously described. Non‐extracted plasma renin activity (PRA) (Dunn & Espiner, [1976]) and aldosterone (Lun et al., [1983]) were measured as previously described. Cyclic AMP was measured by enzyme‐linked immunosorbent assay (catalogue no. ADI‐900‐163; Enzo Life Sciences, Farmingdale, NY, USA). For each analyte, all samples from individual animals were measured in the same assay to avoid interassay variability. Haematocrit concentrations were measured with every blood sample taken.
# [2] = test system: normal conscious sheep; test: Renal responses (hourly urine collections, nephrogenous cGMP/cAMP) to stepped OSTN infusion; conditions: for Urine cAMP / Urine creatinine / Urine potassium: hourly urine collection, sheep n = 8, mean ± SD
# Description: as §1, §2
# (§4) Blood samples for analysis of plasma sodium, potassium and creatinine concentrations were taken immediately before the first dose (baseline), then hourly throughout the study. Urine volume and samples for the measurement of urine cGMP, urine cAMP, sodium, potassium and creatinine excretion were collected hourly throughout the study protocol. To estimate the contribution of renal tissues to urine cGMP/cAMP excretion, nephrogenous cGMP/cAMP was calculated using the formula [urine cG(A)MP − (glomerular filtration rate × plasma cG(A)MP/urine volume × min] (Hirata et al., [1990]).
# [3] = test system: normal conscious sheep; test: Plasma sodium, potassium and creatinine during stepped OSTN infusion; conditions: sheep n = 8, mean ± SD
# Description: as §2, §4
# [4] = test system: normal conscious sheep; test: Plasma cGMP (RIA) and cAMP (ELISA) responses to stepped OSTN infusion; conditions: sheep n = 8, mean ± SD
# Description: as §2, §3
# [5] = 4 h, 1 h after end of infusions
# [6] = 5 h, 2 h after end of infusions
# [7] = 1 h, end of OSTN 2.5 pmol/kg/min I.V.
# [8] = 2 h, end of OSTN 25 pmol/kg/min I.V.
# [9] = 3 h, end of OSTN 250 pmol/kg/min I.V.
sequence,measurement,setting,value
SFSGFGSPLDRLSAGSVSHKGKQRKVVDHPKRRFGIPMDRIGRNRLSNSRG [OSTN],Fall in mean arterial pressure (MAP) compared with time-matched vehicle control,[1]; end of 2.5 pmol/kg/min infusion period,~2 mmHg
same,Fall in mean arterial pressure (MAP) compared with time-matched vehicle control,[1]; end of 25 pmol/kg/min infusion period,~7 mmHg
same,Fall in mean arterial pressure (MAP) compared with time-matched vehicle control,[1]; end of 250 pmol/kg/min infusion period,~12 mmHg
same,Heart rate (HR),"[1]; stepped OSTN infusions vs vehicle, P = 0.140",did not significantly alter
same,Calculated total peripheral resistance (CTPR),"[1]; stepped OSTN infusions vs vehicle, P = 0.356",did not significantly alter
same,Haematocrit,"[1]; stepped OSTN infusions vs vehicle, P = 0.360",did not significantly alter
same,Cardiac output (CO),"[1]; stepped OSTN infusions vs vehicle, P = 0.546",did not significantly alter
same,Central venous pressure (CVP),"[1]; vs vehicle, P = 0.003, significant reductions at 25 and 250 pmol/kg/min",reduced
same,Urine cAMP,"[2]; 1 h, OSTN 2.5 pmol/kg/min I.V.",674 ± 367 pmol/h
same,Urine creatinine,"[2]; 1 h, OSTN 2.5 pmol/kg/min I.V.",0.635 ± 0.100 mmol/h
same,Urine potassium,"[2]; 1 h, OSTN 2.5 pmol/kg/min I.V.",15.6 ± 3.5 mmol/h
same,Urine cAMP,"[2]; 2 h, OSTN 25 pmol/kg/min I.V.",699 ± 322 pmol/h
same,Urine creatinine,"[2]; 2 h, OSTN 25 pmol/kg/min I.V.",0.593 ± 0.100 mmol/h
same,Urine potassium,"[2]; 2 h, OSTN 25 pmol/kg/min I.V.",12.7 ± 4.9 mmol/h
same,Urine cAMP,"[2]; 3 h, OSTN 250 pmol/kg/min I.V.",549 ± 211 pmol/h
same,Urine creatinine,"[2]; 3 h, OSTN 250 pmol/kg/min I.V.",0.586 ± 0.200 mmol/h
same,Urine potassium,"[2]; 3 h, OSTN 250 pmol/kg/min I.V.",9.9 ± 3.6 mmol/h
same,Urine cAMP,[2]; [5],452 ± 219 pmol/h
same,Urine creatinine,[2]; [5],0.533 ± 0.200 mmol/h
same,Urine potassium,[2]; [5],7.9 ± 3.4 mmol/h
same,Urine cAMP,[2]; [6],891 ± 1136 pmol/h
same,Urine creatinine,[2]; [6],0.542 ± 0.100 mmol/h
same,Urine potassium,[2]; [6],7.4 ± 3.6 mmol/h
same,Urine sodium excretion (natriuresis),"[2]; stepped OSTN infusions vs vehicle, P = 0.226",did not increase
same,Urinary rate (diuresis),"[2]; stepped OSTN infusions vs vehicle, P = 0.467",did not increase
same,Urinary cGMP excretion,"[2]; stepped OSTN infusions vs vehicle, dose-dependent, P = 0.002",increased
same,Plasma creatinine,[3]; [7],76.6 ± 7.5 µmol/L
same,Plasma potassium,[3]; [7],3.8 ± 0.3 mmol/L
same,Plasma sodium,[3]; [7],147.0 ± 2.6 mmol/L
same,Plasma creatinine,[3]; [8],75.6 ± 6.9 µmol/L
same,Plasma potassium,[3]; [8],4.0 ± 0.5 mmol/L
same,Plasma sodium,[3]; [8],147.0 ± 2.5 mmol/L
same,Plasma creatinine,[3]; [9],76.4 ± 8.5 µmol/L
same,Plasma potassium,[3]; [9],4.0 ± 0.5 mmol/L
same,Plasma sodium,[3]; [9],146.9 ± 2.4 mmol/L
same,Plasma creatinine,[3]; [5],75.6 ± 8.9 µmol/L
same,Plasma potassium,[3]; [5],4.1 ± 0.6 mmol/L
same,Plasma sodium,[3]; [5],147.1 ± 2.2 mmol/L
same,Plasma creatinine,[3]; [6],74.6 ± 8.5 µmol/L
same,Plasma potassium,[3]; [6],4.3 ± 0.6 mmol/L
same,Plasma sodium,[3]; [6],146.5 ± 2.1 mmol/L
same,Plasma cAMP,[4]; [7],11.5 ± 4.8 pmol/L
same,Plasma cAMP,[4]; [8],11.6 ± 3.0 pmol/L
same,Plasma cAMP,[4]; [9],12.9 ± 6.5 pmol/L
same,Plasma cAMP,[4]; [5],10.4 ± 7.1 pmol/L
same,Plasma cAMP,[4]; [6],10.7 ± 6.1 pmol/L
same,Plasma cGMP,[4]; end of 60 min OSTN infusion 2.5 pmol/kg/min,11.2 ± 5.1 nmol/L
same,Plasma cGMP,[4]; end of 60 min OSTN infusion 25 pmol/kg/min,19.0 ± 11.0 nmol/L
same,Plasma cGMP,[4]; end of 60 min OSTN infusion 250 pmol/kg/min,23.1 ± 9.7 nmol/L
